These results are taken from patent publication US12421222B2 (AUGUSTINE THERAPEUTICS, priority 2021, dated 2025).

Some results are limits rather than exact numbers.

One may read the IC50 as the concentration at which inhibition is half-maximal.

For the assay, the system named is acetylated tubulin (Lys40) in HeLa cells. Put plainly: Acetylated α-tubulin measurement in vitro (immunocytochemistry). The settings on record: Homo sapiens, 6 hours incubation, acetylated tubulin (Lys40) by immunocytochemistry, read-out: IC50 (Tubulin deacetylation). The class given is cell-based. The procedure, abridged: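 HeLa cells in serum-free medium treated 6 h at 37 °C (final DMSO 0.1–0.4%), then PFA-fixed and immunostained for acetyl-Lys40 and total α-tubulin; high-content imaging.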
For `Cc1nc(SCC(=O)c2ccc(CNC(=O)CO)s2)c2cc(Cl)c(F)cc2n1` [Example 73, N-((5-(2-((6-chloro-7-fluoro-2-methylquinazolin-4-yl)thio)acetyl)thiophen-2-yl)methyl)-2-hydroxyacetamide], the IC50 was in the range of 0.1 to 0.5 µM.
To `Cc1nnc(SCC(=O)c2ccc(CNC(=O)C(C)(C)C)s2)c2ccccc12` [Example 194, N-((5-(2-((4-methylphthalazin-1-yl)thio)acetyl)thiophen-2-yl)methyl)pivalamide] belongs 0.5 to 1 µM; to `O=C(CSc1nc(C(F)(F)F)nc2nn(C3CC3)cc12)c1ccc(CNC(=O)C(F)(F)C(F)(F)F)s1` [Example 44, N-((5-(2-((2-cyclopropyl-6-(trifluoromethyl)-2H-pyrazolo[3,4-d]pyrimidin-4-yl)thio)acetyl)thiophen-2-yl)methyl)-2,2,3,3,3-pentafluoropropanamide], 0.1 to 0.5 µM.
Turning to `O=C(CSc1nc(C(F)(F)F)nc2ncccc12)c1ccc(CN2CCOCC2=O)s1` [Example 138, 4-((5-(2-((2-(trifluoromethyl)pyrido[2,3-d]pyrimidin-4-yl)thio)acetyl)thiophen-2-yl)methyl)morpholin-3-one], the half-maximal inhibitory concentration (IC50) lay in the range of 0.1 to 0.5 µM.
With `COc1cnc2nc(C)nc(SCC(=O)c3ccc(CNC(=O)CO)s3)c2c1` [Example 140, 2-hydroxy-N-((5-(2-((6-methoxy-2-methylpyrido[2,3-d]pyrimidin-4-yl)thio)acetyl)thiophen-2-yl)methyl)acetamide] the figure was 0.1 to 0.5 µM; with `CNCC(=O)NCc1ccc(C(=O)CSc2nc(C)nc3ccc(OC)cc23)s1` [Example 183, N-((5-(2-((6-methoxy-2-methylquinazolin-4-yl)thio)acetyl)thiophen-2-yl)methyl)-2-(methylamino)acetamide], 0.1 to 0.5 µM; with `COc1cc2c(SCC(=O)c3ccc(CNC(=O)CO)s3)nc(C)nc2cn1` [Example 121, 2-hydroxy-N-((5-(2-((6-methoxy-2-methylpyrido[3,4-d]pyrimidin-4-yl)thio)acetyl)thiophen-2-yl)methyl)acetamide], no more than 0.1 µM.
With `O=C(CSc1nc(C(F)(F)F)nc2ccccc12)c1ccc(CCNC(=O)C2CC2)s1` [Example 36, N-(2-(5-(2-((2-(trifluoromethyl)quinazolin-4-yl)thio)acetyl)thiophen-2-yl)ethyl)cyclopropanecarboxamide] the figure was greater than 3.33 µM; with `Cc1nc(SCC(=O)c2ccc(CNC(=O)C(C)(C)C)s2)c2ccc(F)cc2n1` [Example 10, N-((5-(2-((7-fluoro-2-methylquinazolin-4-yl)thio)acetyl)thiophen-2-yl)methyl)pivalamide], 1 to 3.33 µM.
With `COc1cc(F)c2nc(C)nc(SCC(=O)c3ccc(CNC(=O)CO)s3)c2c1` [Example 108, N-((5-(2-((8-fluoro-6-methoxy-2-methylquinazolin-4-yl)thio)acetyl)thiophen-2-yl)methyl)-2-hydroxyacetamide] the figure was 0.1 to 0.5 µM; with `O=C(CO)NCc1ccc(C(=O)CSc2nc(C(F)(F)F)nc3ncccc23)s1` [Example 113, 2-hydroxy-N-((5-(2-((2-(trifluoromethyl)pyrido[2,3-d]pyrimidin-4-yl)thio)acetyl)thiophen-2-yl)methyl)acetamide], no more than 0.1 µM.
Regarding `CCS(=O)(=O)NCc1ccc(C(=O)CSc2nc(C(F)(F)F)nc3ncccc23)s1` [Example 127, N-((5-(2-((2-(trifluoromethyl)pyrido[2,3-d]pyrimidin-4-yl)thio)acetyl)thiophen-2-yl)methyl)ethanesulfonamide], the IC50 fell in the range of 0.1 to 0.5 µM.
With `O=C(CO)NCc1ccc(C(=O)CSc2nc3cc(C(F)(F)F)ncc3o2)s1` [Example 71, 2-hydroxy-N-((5-(2-((6-(trifluoromethyl)oxazolo[5,4-c]156yrrolid-2-yl)thio)acetyl)thiophen-2-yl)methyl)acetamide], the 50% inhibitory concentration (IC50) was no more than 0.1 µM.
On to `COc1ccc2c(SCC(=O)c3ccc(CNC(=O)CO)s3)nc(C)nc2c1` [Example 70, 2-hydroxy-N-((5-(2-((7-methoxy-2-methylquinazolin-4-yl)thio)acetyl)thiophen-2-yl)methyl)acetamide], for which the IC50 was 0.1 to 0.5 µM.
With `O=C(CSc1nc(C(F)(F)F)nc2nn(C3CC3)cc12)c1ccc(CNC(=O)C2CC2(F)F)s1` (stereo not drawn) [Example 43, N-((5-(2-((2-cyclopropyl-6-(trifluoromethyl)-2H-pyrazolo[3,4-d]pyrimidin-4-yl)thio)acetyl)thiophen-2-yl)methyl)-2,2-difluorocyclopropane-1-carboxamide] the figure was 0.1 to 0.5 µM.
Regarding `COc1ccc2nc(C)nc(SCC(=O)c3ccc(CNC(=O)C4CCCO4)s3)c2c1` (stereo not drawn) [Example 171, N-((5-(2-((6-methoxy-2-methylquinazolin-4-yl)thio)acetyl)thiophen-2-yl)methyl)tetrahydrofuran-2-carboxamide], the concentration for half-maximal inhibition (IC50) fell in the range of 0.1 to 0.5 µM.
To `Cc1nc(SCC(=O)c2ccc(CNC(=O)C(C)(C)C)s2)c2cccnc2n1` [Example 7, N-((5-(2-((2-methylpyrido[2,3-d]pyrimidin-4-yl)thio)acetyl)thiophen-2-yl)methyl)pivalamide] belongs 0.1 to 0.5 µM.
With `O=C(CSc1nc(C(F)(F)F)nc2ncccc12)c1ccc(CNC(=O)C2CC2(F)F)s1` (stereo not drawn) [Example 114, 2,2-difluoro-N-((5-(2-((2-(trifluoromethyl)pyrido[2,3-d]pyrimidin-4-yl)thio)acetyl)thiophen-2-yl)methyl)cyclopropane-1-carboxamide] the figure was no more than 0.1 µM; with `O=C(CO)NCc1ccc(C(=O)CSc2nccc3ccncc23)s1` [Example 180, N-((5-(2-((2,7-naphthyridin-1-yl)thio)acetyl)thiophen-2-yl)methyl)-2-hydroxyacetamide], 0.1 to 0.5 µM.
With `COc1ccc2nc(C)nc(SCC(=O)c3ccc(CNC(=O)[C@H](C)O)s3)c2c1` [Example 185, (S)-2-hydroxy-N-((5-(2-((6-methoxy-2-methylquinazolin-4-yl)thio)acetyl)thiophen-2-yl)methyl)propanamide] the figure was no more than 0.1 µM.
Take `COCCn1cc2c(SCC(=O)c3ccc(CNC(=O)CO)s3)nc(C(F)(F)F)nc2n1` [Example 132, 2-hydroxy-N-((5-(2-((2-(2-methoxyethyl)-6-(trifluoromethyl)-2H-pyrazolo[3,4-d]pyrimidin-4-yl)thio)acetyl)thiophen-2-yl)methyl)acetamide]: the IC50 was no more than 0.1 µM.
To `CN(C)c1nc(SCC(=O)c2ccc(CNC(=O)C(C)(C)C)s2)c2ccccc2n1` [Example 16, N-((5-(2-((2-(dimethylamino)quinazolin-4-yl)thio)acetyl)thiophen-2-yl)methyl)pivalamide] belongs 1 to 3.33 µM; to `COc1ccc2nc(C)nc(SCC(=O)c3ccc([C@H](C)NC(=O)CO)s3)c2c1` [Example 128, (S)-2-hydroxy-N-(1-(5-(2-((6-methoxy-2-methylquinazolin-4-yl)thio)acetyl)thiophen-2-yl)ethyl)acetamide], 0.1 to 0.5 µM.
`COc1ccc2nc(C)nc(SCC(=O)c3ccc(CN4CCC(O)C4=O)s3)c2c1` (stereo not drawn) [Example 141, 3-hydroxy-1-((5-(2-((6-methoxy-2-methylquinazolin-4-yl)thio)acetyl)thiophen-2-yl)methyl)pyrrolidin-2-one]: the IC50 is 0.1 to 0.5 µM.
